Data taken from PubChem BioAssay AID1288 (Columbia University Molecular Screening Center, 2008).
Active and inactive are the calls of the source. No rule for the calls is given here.

Tests used:
[1] = inhibitors of TNFa-induced E-selectin expression, confirmation, imaging, retest plus dose response, cell count (AID 1288); conditions: human endothelial cells, TNFa-induced E-selectin, imaging; cell count toxicity; at 10 µM; stronger effect = lower value
[2] = system: human endothelial cells, TNFa-induced E-selectin, imaging; experiment: as above

| Compound | cell count [1] [%] | IC50 [2] |
| --- | --- | --- |
| COCCN(CC(=O)NC1CCCCC1)C(=O)/C=C/C(=O)c1ccc(OC)cc1O | 95 | > 10 µM (inactive) |
| C#CC(=O)N(c1cc(OC)ccc1OC)C(C(=O)NC1CCCC1)c1cccs1 (centres undefined) | 33.9 | 9.61 µM |
| COc1cc(NC(=O)Cn2ncc(Cl)c(Cl)c2=O)c(C)cc1[N+](=O)[O-] | 90.1 | > 10 µM (inactive) |
| O=S1(=O)C=C(Sc2nnc(-c3ccccc3)o2)c2ccccc21 | 72.7 | > 10 µM (inactive) |
| Cc1ccc2nc(-c3ccc(NC(=O)CCN4C(=O)c5ccccc5C4=O)cc3)sc2c1 | 107 | > 10 µM (inactive) |
| O=C(NCCC1=CCCCC1)c1coc(=O)c(Br)c1 | 1.14 | 2.77 µM |
| O=C(OCn1ncc(Cl)c(Cl)c1=O)c1ccc(F)cc1 | 107 | > 10 µM (inactive) |
| COCC(C)NC(=O)CCS(=O)(=O)c1nc(-c2ccc(OC)cc2)cc(C(F)(F)F)n1 (centres undefined) | 83 | > 10 µM (inactive) |
| CCc1ccc(N2C(=O)NC(=O)/C(=C/c3cccn3CCOc3ccc(C(C)CC)cc3)C2=O)cc1 (centres undefined) | 17.9 | 1.37 µM |
| O=C(Nc1ccc2oc(-c3cccnc3)nc2c1)c1ccc([N+](=O)[O-])o1 | 54.4 | 2.73 µM |
| CC(C)(C)C1=CC(=O)C(=O)C(C(C)(C)C)=C1 | 95 | > 10 µM (inactive) |
| CN1C(=O)/C(=C/c2cccn2-c2ccc3ccccc3c2)C(=O)NC1=S | 106 | 6.93 µM |
| COc1cccc(N2CCN(c3ncnc4c3[nH]c3ccc(F)cc34)CC2C)c1 (centres undefined) | 40.9 | 1.41 µM |
| CS(=O)(=O)c1ccc(S(=O)CC(=O)OCc2ccccc2)c([N+](=O)[O-])c1 (centres undefined) | 98.7 | > 10 µM (inactive) |
| Cn1cc([N+](=O)[O-])c(C(=O)Nc2nc(-c3ccc(Cl)cc3)cs2)n1 | 97.8 | > 10 µM (inactive) |
| COc1ccc(NC(=O)/C(Cl)=C(/Cl)S(=O)Cc2ccccc2Cl)cn1 (centres undefined) | 99.9 | 5.39 µM |
| Cc1ccc2nc3cc([N+](=O)[O-])cc([N+](=O)[O-])c3cc2c1 | 101 | > 10 µM (inactive) |
| Cc1ccc(-c2nc(NC(=O)c3nn(C)cc3[N+](=O)[O-])sc2C)cc1 | 69.6 | 5.25 µM |
| Cc1ccccc1NC1=C/C(=N\S(=O)(=O)c2cccs2)c2ccccc2C1=O | 107 | > 10 µM (inactive) |
| N#CC(C#N)=C1C=CC=CN1/C(=C\c1ccccc1Cl)C(=O)c1ccccc1 | 68.3 | 4.99 µM |
| CCCn1c(=NC(=O)c2ccco2)c(C(=O)OCC)cc2c(=O)n3ccccc3nc21 | 64.4 | 4.41 µM |

| Compound | cell count [1] [%] | IC50 [2] |
| --- | --- | --- |
| CN1/C(=C/C(=O)c2nc(S(C)(=O)=O)ncc2Cl)C(C)(C)c2ccccc21 | 97.9 | > 10 µM (inactive) |
| C=C1C(=O)C=C2CN(C(=O)c3ccccc3)[C@@](Cc3ccc(F)cc3)(C(=O)OC)[C@@H]12 | 104 | > 10 µM (inactive) |
| Cn1c(SC2=CS(=O)(=O)c3ccccc32)nc2ccccc21 | 13.4 | 2.53 µM |
| CN(CCC#N)C(=O)COC(=O)c1ccccc1C(=O)c1ccc(Cl)c([N+](=O)[O-])c1 | 15.6 | 1.37 µM |
| COc1ccc(Oc2cc(NC(=O)c3nn(C)cc3[N+](=O)[O-])cc([N+](=O)[O-])c2)cc1 | 23.9 | 3.5 µM |
| O=C(CS(=O)c1ccc(C(F)(F)F)cc1[N+](=O)[O-])Oc1ccccc1 (centres undefined) | 88.5 | > 10 µM (inactive) |
| Cc1nc2scc(-c3ccccc3)c2c(=O)n1N=C1C=CC(=O)C=C1 | 92.3 | > 10 µM (inactive) |
| Cc1cc2cc(C=C(C#N)C#N)c(Cl)nc2cc1C | 4.88 | 2.39 µM |
| CC1C/C(=C/c2ccncc2)C(=O)/C(=C/c2ccncc2)C1 (centres undefined) | 84.9 | 4.92 µM |
| COc1ccc(-c2cc(C(=O)Nc3cnn(Cc4ccccc4C)c3)no2)cc1OC | 80.4 | 6.19 µM |
| O=C(Nc1ccccc1)c1nnsc1S(=O)c1ccc(Cl)cc1 (centres undefined) | 16.1 | 3.58 µM |
| COC(=O)c1ccccc1NC(=O)c1ccc(-c2cccc(Cl)c2)o1 | 13.8 | 2.09 µM |
| CN(C)C(=O)Oc1c(Cl)cc(Cl)c2cccnc12 | 20.8 | 2.55 µM |
| COc1ccc(CS(=O)/C(Cl)=C(/Cl)C(=O)Nc2ccc(OC)nc2)cc1 (centres undefined) | 10.3 | 2.02 µM |
| O=C(Nc1ccccc1)C1=C(c2ccccc2)S(=O)(=O)CCS1(=O)=O | 77.8 | 7.63 µM |
| CC(C)(C)C(=O)/C(=C\c1cccc([N+](=O)[O-])c1)n1cncn1 | 23.9 | 3.04 µM |
| CCOC(=O)CS(=O)(=O)c1nc(-c2ccc(F)cc2)cc(C(F)(F)F)n1 | 98.3 | > 10 µM (inactive) |
| O=S(=O)(C/C(=C/CO)S(=O)(=O)c1ccccc1)c1ccccc1 | 97.8 | > 10 µM (inactive) |
| CCN(CC)c1ccc2c(Cl)c(Br)c(=O)oc2c1 | 11.5 | 2.16 µM |
| N#CC(C#N)=C1C=CC=CN1/C(=C\c1ccco1)C(=O)c1ccc(-c2ccccc2)cc1 | 2.93 | 2.85 µM |
| C=C1C(=O)[C@@]23[C@H](O)C[C@@H]4C(C)(C)CC[C@H](O)[C@@]4(C)[C@@H]2CC[C@@H]1[C@H]3O | 10.1 | 2 µM |
